Results reported in publication PMC5845165, “Pharmacokinetic Study of 7 Compounds Following Oral Administration of Fructus Aurantii to Depressive Rats” (Frontiers in Pharmacology, 2018).

Test system: rats undergoing the forced swimming test (FST)
Assay: Forced swimming test (FST), immobility time after acute oral treatment
Format: in vivo, Sprague–Dawley rats
Conditions: Fluoxetine 20 mg/kg, single oral dose 0.5 h before test (Figure 1A); p < 0.05 vs vehicle
Procedure: ZQ lyophilized powder or fluoxetine (Eli Lilly, United States) was dissolved with saline. To evaluate dose-dependent effects, ZQ (5, 10, 20 g/kg) or fluoxetine (20 mg/kg) was orally administered as a single dosage 0.5 h before the test. To study the precise relationship between antidepressant effects and pharmacokinetics, ZQ (20 g/kg) was orally administered as a single dose 0.5, 1, 2, or 4 h before the test. Similarly, vehicle rats were orally administered an equal volume of saline using the identical procedure.
The swimming tests were conducted according to a previously described method ([Flores-Burgess et al., 2017]) with minor modifications. In brief, all experiments were operated between 12:00 h and 15:00 h in the light cycle. Each rat was individually put into a vertical glass cylinder with a diameter of 20 cm, water depth of 30 cm and water temperature of 25°C. A 15-min forced swimming test was conducted 24 h before the 5-min test. Each rat was deemed to be immobile when it stopped scrabbling, remained floating stilly in the water and only made necessary struggling to maintain its head over water. The total duration of immobility was recorded during the 5-min test.

CNCCC(Oc1ccc(C(F)(F)F)cc1)c1ccccc1 (stereo not shown) [Fluoxetine, fluoxetine]
immobility time in the FST: 116.07 ± 28.65 s
